Data taken from paper PMC10870750 (ACS Polymers Au, 2023).
Positions of bridges follow the written chain, without caps; N, C: chain ends. Non-standard residues stand in square brackets, D forms with d. Residues, ends and D or L forms follow the SMILES beside them. S5 = C=CCCC[C@](C)(N)C(=O)O

Experiments:
Dynamic light scattering = type: physicochemical; conditions: 200 μM in 10 mM PBS; from lack of reliable DLS data and visibly clear solutions
[1] = system: human red blood cells (RBCs); conditions: 50 μM; ref our previous study; cited from earlier work

For CC[C@H](C)[C@H](NC(=O)[C@H](C)NC(=O)[C@H](CCCCN)NC(=O)[C@H](CO)NC(=O)[C@H](CCC(=O)O)NC(=O)[C@@H]1CCCN1C(C)=O)C(=O)N[C@@H](CCCCN)C(=O)N[C@@]1(C)CCCC=CCCC[C@@](C)(C(=O)N[C@H](C(=O)N[C@@H](CO)C(=O)N[C@@H](CCCCN)C(=O)N[C@@H](CCC(=O)O)C(=O)N[C@@H](CCCNC(=N)N)C(=O)N[C@@H](CO)C(=O)N[C@@H](CCCCN)C(=O)N[C@@H](CCCNC(=N)N)C(=O)N[C@@H](CO)C(=O)N2CCC[C@H]2C(N)=O)C(C)C)NC(=O)[C@H](CCCCN)NC(=O)[C@H](CC(C)C)NC(=O)[C@H](CC(C)C)NC1=O [stapled Ac-P9] (Ac-PESKAIK[S5]LLK[S5]VSKERSKRSP-NH2; staple 8-12), the “solubility / aggregation state in solution” value (Dynamic light scattering) is given as “soluble or exists in very small aggregates” and the hemolysis [1] is given as “does not induce significant hemolysis”.
